Each compound was assayed on Caco-2 human epithelial colorectal adenocarcinoma cells (assay: In vitro Caco-2 cell model, transport of (−)-epicatechin). Details: 250 μM (−)-epicatechin plus carbohydrate 100 mg/ml on the apical side, 2 h incubation.
Assay type: in vitro ADME
Method: Caco-2 human epithelial colorectal adenocarcinoma cells were used to investigate the transport of (−)-epicatechin in vitro. Cells were grown in high glucose DMEM supplemented with 20% heat inactivated fetal bovine serum, non-essential amino acids and 2 mM L-glutamine, amphotericin B (1 μg/ml), penicillin (100 U/ml), and streptomycin (100 μg/ml) and maintained at 37° C. and 5% CO2. The medium was replaced every 2 days and the cells were reseeded every 7 days. Then, cells were seeded in 12-well transwell inserts at a density of 20,000 cells per cm^2 and the medium on both sides was replaced every 2 days. After 21 days, cells were already differentiated. On the experiment day, medium was removed and replaced by HBSS supplemented with 25 mM glucose, 10 mM HEPES and 1.8 mM CaCl2. […] Then, (−)-epicatechin (250 μM) alone or plus carbohydrates (5 to 100 mg/ml) were placed in the apical side of the cell monolayers and incubated for 2 h. All compounds were added to the exposure medium from stock solutions in DMSO. The concentration of DMSO at the apical side was kept at 0.05% in each experiment. (−)-Epicatechin was detected in the cell culture media using ultra-performance liquid chromatography using an Acquity UPLC HSS C18 2.1×100 mm, 1.8 μm column (Waters, Switzerland) equipped with HSS C18 VanGuard pre-column (Waters, Switzerland).

Question: OC[C@@H](O)[C@H](O)[C@@H](O)CO [xylitol] was tested. Which “concentration of (−)-epicatechin in the basal compartment in comparison to sucrose” value (shortened to “concentration of (−)-epicatechin … to sucrose”) did it give?
Answer: significant higher concentration of (−)-epicatechin in the basal compartment

Question: With OC[C@@H](O)[C@@H](O)[C@H](O)[C@@H](O)CO [sorbitol, D-sorbitol] as the compound, how does the “concentration of (−)-epicatechin … to sucrose” value read?
Answer: significant higher concentration of (−)-epicatechin in the basal compartment

Question: O=C[C@H](O)[C@@H](O)[C@@H](O)[C@H](O)CO [galactose] was tested. Which “concentration of (−)-epicatechin … to sucrose” value did it give?
Answer: significant higher concentration of (−)-epicatechin in the basal compartment

Same assay, conditions: (−)-epicatechin in combination with selected low glycemic index carbohydrates

Question: How did the “concentration of (−)-epicatechin in the basal compartment when in combination with carbohydrate” value (“concentration … with carbohydrate” for short) turn out when OC[C@@H](O)[C@H](O)[C@@H](O)CO [xylitol] was run?
Answer: significant increase in the concentration of (−)-epicatechin in the basal compartment

Question: For OC[C@@H](O)[C@@H](O)[C@H](O)[C@@H](O)CO [sorbitol, D-sorbitol], which “concentration … with carbohydrate” value is on record?
Answer: significant increase in the concentration of (−)-epicatechin in the basal compartment

Question: For O=C[C@H](O)[C@@H](O)[C@@H](O)[C@H](O)CO [galactose], which “concentration … with carbohydrate” value is on record?
Answer: significant increase in the concentration of (−)-epicatechin in the basal compartment

From US10709159B2, “Increasing the bioavailability of flavan-3-ols with carbohydrates with a low glycemic index” (NESTEC S.A., priority 2012, dated 2020)
